pIC50: −log10 of the molar value. “Also recorded” adds a separate entry of the source.
Legend:
recombinant human PD-L1 = recombinant human PD-L1 (Homo sapiens (Human), UniProt Q9NZQ7); test: Differential scanning fluorimetry (DSF) thermal denaturation; assay type: binding; settings: 100 μM compound, 1% DMSO
Description: DSF was performed in a C1000 Touch thermal cycler equipped with a CFX96 optical reaction module (Bio Rad). For all fluorescence measurements, samples contained recombinant human PD-L1 (ThermoFisher) at 500 μg/ml in phosphate buffered saline (PBS), pH 7.4, 5% (m/v) Mannitol, 5% (m/v) Trehalose, 0.02% (v/v) Tween® 80, 2.5-fold SYPRO® Orange, 1% (v/v) DMSO (Sigma-Aldrich) and 100 μM of each compound. The PCR plate was sealed with Optical-Quality Sealing Tape (Bio-Rad) and centrifuged at 300 g for 5 minutes. The DSF assay was carried out by increasing the temperature from 20 to 90° C., with a 1 second hold time every 0.2° C. and fluorescence acquisition using the FRET channel, after an initial incubation step of 10 minutes at 20° C. Control experiments in the absence of DMSO and/or compounds were routinely performed in each microplate.
Data were processed using CFX Manager Software V3.0 (Bio-Rad) and the GraphPad Prism 7. Temperature scan curves were fitted to a dose-response sigmoid function (Boltzmann equation) and the melting temperature (Tm values) were obtained from the midpoint of the transition. Normalization of the RFU was also performed to prevent distraction due to different maximum and minimum values upon compounds treatment. The RFU values from different data sets were converted to a common scale 0-1, where 0 represents the fluorescence of the native protein and 1 the fluorescence of the denatured protein. To monitor the binding properties towards each compound, DSF assays were run in the absence and presence of 100 μM compounds using 1% (v/v) DMSO as vehicle control.
To test this hypothesis, the melting temperature (Tm) of the PD-L1 was determined in thermal denaturation assays by differential scanning fluorimetry (DSF) and checked for a shift in the proteins' Tm (ΔTm) in the presence of the PD-L1 inhibitor candidates. The extent of temperature shift is proportional to the compounds' stabilizing effect and thereby used to infer inhibitors' affinity.

[1] = tested on: PD-1/PD-L1 interaction on MDA-MB-231 cells; test: Cell-based PD-1/PD-L1 inhibition (accessible PD-L1 by flow cytometry), MDA-MB-231; set-up: species or system human; settings: Homo sapiens, 72 hours
Description: PD-1/PD-L1 Inhibition on Human Melanoma and Breast Cancer Cell Lines:
Cells (0.1×10^6 cells) were tested for PD-1/PD-L1 inhibition by co-incubation of hit compounds, DMSO (background), BMS-202 (Selleckchem) and anti-human PD-L1 (BioxCell, Clone 29E.2A3) (positive controls) for 72 hours in 2 ml DMEM medium. Non-confluent cell cultures were scraped into single-cell suspension, washed with PBS, and counted. Cells were subsequently stained with PD-1 fluorescent proxy for 30 minutes at 4° C., washed twice and resuspended in FACS buffer. Cells were analyzed using BD LSRFortessa (BD Biosciences) and data analyzed with FlowJo software for Mac (FlowJo, LLC 2013-2016). Mean fluorescence intensity (MFI) was derived from each sample. The PD-1/PD-L1 inhibition in cells was measured by a decrease in MFI relative to background.
The selected cell lines were incubated with the selected compounds to assess compound-binding affinities, and consequently PD-1/PD-L1 inhibition. The levels of remaining accessible PD-L1 in these cells were evaluated by FACS analysis using a fluorescence PD-1 proxy. To understand compound activity, different incubation times (24, 48 and 72 hours) were evaluated on MDA-MB-231 breast cancer cell line.
The remaining accessible PD-L1 was determined by flow cytometry.

[2] = tested on: patient-derived melanoma (Mel4) spheroids with autologous PBMC; test: 3D patient-derived melanoma spheroid - PBMC co-culture; assay type: cell-based, human; settings: vs αPD-L1 and untreated
Description: 3D Patient-Derived Tumor Spheroids—Lymphocyte Co-Culture:
After isolation of tumor cells, cells were washed and cultured for up to 3 days. This allowed the isolation of adherent cells that were then scrapped and seeded in Nunclon Sphera 96-well plate (Thermo Fisher Scientific) to create a unique uniform spheroid in each well. Spheroids were ready on day 2-5. Thereafter, spheroids were embedded in reduced growth Matrigel (Corning) with PBMC (1:100) and were left untreated or were treated with the small-molecule inhibitor Compound 69 or αPD-L1, dissolved in the appropriate cell culture medium.
3D co-culture was fixed with 4% paraformaldehyde and blocked by PBS with 2% (m/v) BSA. Thereafter, the samples were incubated with CD8 (MA5-16345—Invitrogen) (1:50) in PBS with 1% (v/v) Tween® 20 for 18 hours at 4° C. Then, 4 μg/ml of secondary antibody (A-11008, Invitrogen) were added, 3D spheroids were stained with Hoechst 33342 (10 μg/ml) for 20 minutes. […] The different z-stacks were merged and analyzed by Fiji-ImageJ.
The ability of PD-1/PD-L1 inhibitors (small-molecule inhibitor Compound 69 and αPD-L1) to promote CD8^+ T-cell infiltration into the tumor site was evaluated using a 3D co-culture system. […] The CD8^+ T-cell infiltration (green) was evaluated after 72 hours of co-culture by confocal microscopy. […]

Sequence of recombinant human PD-L1 (Q9NZQ7 19-238): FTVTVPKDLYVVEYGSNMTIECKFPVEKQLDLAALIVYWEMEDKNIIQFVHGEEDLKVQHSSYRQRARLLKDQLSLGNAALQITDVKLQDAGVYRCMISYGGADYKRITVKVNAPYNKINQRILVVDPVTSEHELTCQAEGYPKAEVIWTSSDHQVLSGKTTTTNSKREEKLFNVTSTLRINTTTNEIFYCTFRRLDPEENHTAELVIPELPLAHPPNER

With `CCCCCN(CCCCC)C(C)C(=O)c1cc(C)c2ccc3cc(C(C)C)ccc3c2c1.Cl` (stereo not shown) [Compound 69] the “thermal shift / stabilization of PD-L1” value (recombinant human PD-L1) was “stabilization of PD-L1”, the pIC50 [1] was 6.00 and the “CD8+ T cell infiltration within the tumor spheroid” value ([2]; 72 hours of co-culture) was “higher CD8^+ T cell infiltration”. For the same compound, the “sprouting of patient-derived melanoma cells” value ([2]; Mel4 spheroids) was “inhibited the melanoma cells sprouting; also recorded: strongly inhibited the sprouting”.

— patent US20230390287A1, “MODULATORS OF PD-L1/PD-1 INTERACTION AND USES THEREOF” (Ramot at Tel-Aviv University Ltd., priority 2021, published 2023)
